Publication PMC8451604, “Rational formulation engineering of fraxinellone utilizing 6-O-α-D-maltosyl-β-cyclodextrin for enhanced oral bioavailability and hepatic fibrosis therapy” (Drug Delivery, 2021)
≈ marks a conversion by molar mass, not a printed value. Entries after “also recorded” stand apart in the source; their conditions may differ.

Key:
[1] = Stability of Frax in homogenates of gastrointestinal segments; type: in vitro ADME, rats; settings: rat GI segment homogenates, 37 °C
Description: GI segments (the stomach, duodenum, jejunum, ileum, and colon) were immediately isolated after the rats were sacrificed. Thereafter, the mucosa of each segment was homogenized and centrifuged following gently scraping. The supernatant was separated and subjected to BCA protein quantitative kit to adjust the final protein concentration to 1 mg/mL. DMSO solution of Frax (5 mg/mL) was added in the homogenate to achieve a final drug concentration of 20 μg/mL. After incubation at 37 °C for predetermined durations, samples were immediately precipitated by methanol, centrifuged, and injected into HPLC to measure the Frax concentration. The drug concentration measured before the incubation was set to 100%.

[2] = parameters: method as in Ruan et al., 2006; settings: ref Ruan et al., 2006; cited from earlier work
[3] = Solubility of Frax in various solubilizers (50% solution); type: physicochemical; settings: 37 °C
Description: Excess Frax was added into Solutol HS 15, Tween 80, PEG 400, Transcutol P, β-CD, SBE-β-CD, HP-β-CD, and G2-β-CD solution (50%), respectively. The samples were vortexed followed by incubation in a shaker (120 rpm, 37 °C) for 72 h. After the process, the samples were centrifuged to separate the supernatant containing dissolved Frax. After suitable dilution and filtration, Frax concentration in the supernatant was analyzed by the HPLC method.

[4] = Stability of Frax in artificial gastrointestinal fluid (SGF/SIF); type: physicochemical; settings: SGF/SIF with or without enzymes, 37 °C
Description: The stability studies were performed according to the previous study (Zhang et al., [2015]). Briefly, 20 μL of DMSO solution of Frax (10 mg/mL) was added to 10 mL of simulated gastric fluid (SGF) or simulated intestinal fluid (SIF) containing pepsin/without pepsin. Afterward, the samples were placed in a shaker (100 rpm, 37 °C). At predetermined timepoints, a suitable amount of samples were withdrawn and mixed with methanol. After a thorough vortex, the mixture was centrifuged and the resulted supernatant was subjected to HPLC to determine Frax content.

[5] = Blood biochemical assay (hematological parameters); type: in vivo, Kunming male mice; settings: mice, 7 weeks; for PLT (platelet) / WBC (white blood cell): in 10^9/L (unit assumed); for RBC (red blood cell): in 10^12/L (unit assumed); for HCT (haematocrit) / RDW-CV (red cell volume distribution width): in % (unit assumed); for MCV (mean cell volume) / MPV (meanplateletvolume) / RDW-SD: in fL (unit assumed); for HGB (hemoglobin): in g/L (unit assumed); for MCH (mean corpuscular hemoglobin): in pg (unit assumed)
Description: The Kunming male mice (weight of 28–30 g) were divided into 10 groups (n = 10): normal group, Frax or G2-β-CD-Frax treatment groups with a Frax dose of 5, 10, and 20 mg/kg, respectively, G2-β-CD solution treatment (equivalent to 20 mg/kg of G2-β-CD-Frax) group. Drug treatment continued every day for 7 weeks. One day after the last administration, blood and major tissues (heart, liver, spleen, lung, and kidney) were obtained from the blank group and drug-treated groups (20 mg/kg) for histological examination. The whole blood was directly analyzed using an automatic blood cell analyzer to obtain hematological parameters. The collected tissues were subjected to histological examination.

degradation in GI homogenates [1]: negligible degradation
solubility at 72 h ([3]; 50% (w/v) G2-β-CD solution in water): 12.7 mg/mL (≈ 54.8 mM)
Frax solubility in G2-β-CD solution relative to water ([3]; 50% (w/v) G2-β-CD solution vs water): 160 times
MCHC (mean corpuscular hemoglobin concentration) ([5]; 5 mg/kg): 342.63 ± 10.38
PDW (platelet distribution width) ([5]; 5 mg/kg): 14.84 ± 0.12
PLT (platelet) ([5]; 5 mg/kg): 1188.13 ± 317.24
WBC (white blood cell) ([5]; 5 mg/kg): 7.78 ± 3.91
RBC (red blood cell) ([5]; 5 mg/kg): 9.21 ± 0.75
HCT (haematocrit) ([5]; 5 mg/kg): 39.54 ± 2.28
RDW-CV (red cell volume distribution width) ([5]; 5 mg/kg): 16.24 ± 1.32
MCV (mean cell volume) ([5]; 5 mg/kg): 43.01 ± 2.17
MPV (meanplateletvolume) ([5]; 5 mg/kg): 6.51 ± 0.32
RDW-SD ([5]; 5 mg/kg): 29.88 ± 3.52
HGB (hemoglobin) ([5]; 5 mg/kg): 135.50 ± 10.76
MCH (mean corpuscular hemoglobin) ([5]; 5 mg/kg): 14.73 ± 0.49
MCHC (mean corpuscular hemoglobin concentration) ([5]; 10 mg/kg): 344.43 ± 9.64
PDW (platelet distribution width) ([5]; 10 mg/kg): 14.91 ± 0.12
PLT (platelet) ([5]; 10 mg/kg): 1012.71 ± 281.88
WBC (white blood cell) ([5]; 10 mg/kg): 6.46 ± 2.46
RBC (red blood cell) ([5]; 10 mg/kg): 8.42 ± 0.32
HCT (haematocrit) ([5]; 10 mg/kg): 37.15 ± 1.70
RDW-CV (red cell volume distribution width) ([5]; 10 mg/kg): 16.22 ± 0.59
MCV (mean cell volume) ([5]; 10 mg/kg): 43.80 ± 1.44
MPV (meanplateletvolume) ([5]; 10 mg/kg): 6.63 ± 0.44
RDW-SD ([5]; 10 mg/kg): 30.71 ± 1.70
HGB (hemoglobin) ([5]; 10 mg/kg): 127.00 ± 5.10
MCH (mean corpuscular hemoglobin) ([5]; 10 mg/kg): 15.09 ± 0.46
MCHC (mean corpuscular hemoglobin concentration) ([5]; 20 mg/kg): 338.75 ± 3.58
PDW (platelet distribution width) ([5]; 20 mg/kg): 14.86 ± 0.17
PLT (platelet) ([5]; 20 mg/kg): 1190.00 ± 157.80
WBC (white blood cell) ([5]; 20 mg/kg): 8.32 ± 3.90
RBC (red blood cell) ([5]; 20 mg/kg): 9.07 ± 0.33
HCT (haematocrit) ([5]; 20 mg/kg): 38.83 ± 1.69
RDW-CV (red cell volume distribution width) ([5]; 20 mg/kg): 16.54 ± 0.79
MCV (mean cell volume) ([5]; 20 mg/kg): 42.83 ± 1.54
MPV (meanplateletvolume) ([5]; 20 mg/kg): 6.38 ± 0.23
RDW-SD ([5]; 20 mg/kg): 30.13 ± 2.23
HGB (hemoglobin) ([5]; 20 mg/kg): 131.50 ± 5.66
MCH (mean corpuscular hemoglobin) ([5]; 20 mg/kg): 14.51 ± 0.46
Compound: CC1=C2C(=O)O[C@@H](c3ccoc3)[C@]2(C)CCC1 [Frax, Fraxinellone]
intestinal permeability [2]: good intestinal permeability
degradation in simulated GI fluids [4]: rather stable; also recorded: negligible degradation
